Data as given in patent US20100137313A1 (ASTRAZENECA AB, priority 2008, published 2010).

Molecular target: S. pneumoniae Topoisomerase IV ATPase (ParE) (Streptococcus pneumoniae serotype 4, UniProt Q59961)
Assay: S. pneumoniae Topoisomerase IV ATPase inhibition
Format: biochemical
Details: values marked * are an average of two or more data points, read-out: % Inh (13 μM) of S. pneumoniae Topoisomerase IV ATPase
Outline: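 Phosphate-release ATPase assay: 1.25 nM ParE, 160 μM ATP, DNA-stimulated. Quench with malachite green/molybdate in 1 M HCl, read 650 nm; IC50 from 10-point dose series.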

Chain of S. pneumoniae Topoisomerase IV ATPase (ParE) (Q59961 whole entry): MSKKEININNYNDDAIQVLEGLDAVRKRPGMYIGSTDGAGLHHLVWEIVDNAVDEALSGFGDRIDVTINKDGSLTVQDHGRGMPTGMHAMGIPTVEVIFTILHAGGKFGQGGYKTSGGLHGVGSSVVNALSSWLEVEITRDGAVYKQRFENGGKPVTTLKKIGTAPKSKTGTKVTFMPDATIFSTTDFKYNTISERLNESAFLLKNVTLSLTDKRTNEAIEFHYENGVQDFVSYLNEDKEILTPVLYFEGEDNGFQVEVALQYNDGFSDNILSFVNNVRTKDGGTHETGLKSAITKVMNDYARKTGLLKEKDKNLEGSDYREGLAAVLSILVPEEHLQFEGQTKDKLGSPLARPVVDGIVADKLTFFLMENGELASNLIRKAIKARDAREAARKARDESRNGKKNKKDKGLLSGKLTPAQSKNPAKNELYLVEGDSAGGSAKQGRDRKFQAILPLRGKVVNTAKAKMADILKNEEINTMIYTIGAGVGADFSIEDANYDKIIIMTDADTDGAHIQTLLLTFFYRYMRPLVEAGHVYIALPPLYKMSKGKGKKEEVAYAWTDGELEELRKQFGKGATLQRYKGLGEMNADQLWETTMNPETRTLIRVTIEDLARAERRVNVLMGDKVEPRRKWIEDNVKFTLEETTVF

Compound | inhibition at 13 µM [%]
COc1ccc(-c2cnc(Nc3ccc(F)c(Cl)c3)nc2-n2ccc(C(F)(F)F)n2)cc1C(N)=O [Example 1106, 5-(2-(3-chloro-4-fluorophenylamino)-4-(3-(trifluoromethyl)-1H-pyrazol-1-yl)pyrimidin-5-yl)-2-methoxybenzamide] | 21
CNC(=O)C1CCN(c2nc(Nc3ccc(F)c(Cl)c3)ncc2-c2cncc(C(=O)O)c2)CC1 [Example 247, 5-[2-[(3-chloro-4-fluoprophenyl)amino]-4-[4-(methylcarbamoyl)-piperidin-1-yl]pyrimidin-5-yl]pyridine-3-carboxylic acid] | 42.2
Cc1cc(C(F)(F)F)nn1-c1nc(Nc2ccc(F)c(Cl)c2)ncc1-c1cnc(OC(C)c2ccncc2)c(C(=O)O)c1 (stereo not drawn) [Example 791, 5-{2-[(3-chloro-4-fluorophenyl)amino]-4-[5-methyl-3-(trifluoromethyl)-1H-pyrazol-1-yl]pyrimidin-5-yl}-2-[1-(pyridin-4-yl)ethoxy]pyridine-3-carboxylic acid] | 97
COc1cc(C#N)cc(Nc2ncc(-c3cnc(OC)c(C(=O)O)c3)c(-n3nc(C(F)(F)F)cc3C)n2)c1 [Example 737, 5-{2-[(3-cyano-5-methoxyphenyl)amino]-4-[5-methyl-3-(trifluoromethyl)-1H-pyrazol-1-yl]pyrimidin-5-yl}-2-methoxypyridine-3-carboxylic acid] | 97
O=C(O)/C=C/c1cccc(-c2cnc(Nc3ccc(F)c(Cl)c3)nc2-n2nc(C(F)F)cc2C(F)F)c1 [Example 564, (2E)-3-(3-{4-[3,5-bis(difluoromethyl)-1H-pyrazol-1-yl]-2-[(3-chloro-4-fluorophenyl)amino]pyrimidin-5-yl}phenyl)prop-2-enoic acid] | 92
CCOC(=O)c1cncc(-c2cnc(Nc3ccc(F)c(Cl)c3)nc2NCCCN2CCCC2=O)c1 [Example 91, 5-{2-(3-Chloro-4-fluoro-phenylamino)-4-[3-(2-oxo-pyrrolidin-1-yl)-propylamino]-pyrimidin-5-yl}-nicotinic acid ethyl ester] | 83.1
Fc1ccc(Nc2ncc(-c3cncnc3)c(NCc3ccco3)n2)cc1Cl [Example 53, N^2-(3-chloro-4-fluorophenyl)-N^4-(furan-2-ylmethyl)-5-pyrimidin-5-ylpyrimidine-2,4-diamine] | 70.5
COc1cc(Nc2ncc(-c3ccc(C(=O)O)s3)c(NCCCN(C)C)n2)c(OC)cc1Cl [Example 347, 5-(2-(4-chloro-2,5-dimethoxyphenyl-amino)-4-(3-(dimethylamino)propylamino)pyrimidin-5-yl)thiophene-2-carboxylic acid] | 42.2
N#Cc1cccc(Nc2ncc(-c3cccc(/C=C/C(=O)O)c3)c(-n3ccc(C(F)(F)F)n3)n2)c1 [Example 692, (2E)-3-(3-{2-[(3-cyanophenyl)amino]-4-[3-(trifluoromethyl)-1H-pyrazol-1-yl]pyrimidin-5-yl}phenyl)prop-2-enoic acid] | 97
COc1ncc(-c2cnc(Nc3cc(Cl)cc(C#N)c3)nc2-n2ccc(C(F)(F)F)n2)cc1C(=O)O [Example 917, 5-(2-(3-chloro-5-cyanophenylamino)-4-(3-(trifluoromethyl)-1H-pyrazol-1-yl)pyrimidin-5-yl)-2-methoxynicotinic acid] | 100
Cc1cc(C)cc(Nc2ncc(-c3cncc(C(=O)O)c3)c(-n3nc(C(F)(F)F)cc3C)n2)c1 [Example 638, 5-{2-[(3,5-dimethylphenyl)amino]-4-[5-methyl-3-(trifluoromethyl)-1H-pyrazol-1-yl]pyrimidin-5-yl}pyridine-3-carboxylic acid] | 100
CCOC(=O)c1cncc(-c2cnc(Nc3ccc(F)c(Cl)c3)nc2NCc2cccnc2)c1 [Example 96, 5-{2-(3-Chloro-4-fluoro-phenylamino)-4-[(pyridin-3-ylmethyl)-amino]-pyrimidin-5-yl}-nicotinic acid ethyl ester] | 62.2
O=C(O)c1cncc(-c2cnc(Nc3ccc(F)c(Cl)c3)nc2NCCCN2CCCC2=O)c1 [Example 219, 5-{2-(3-Chloro-4-fluoro-phenylamino)-4-[3-(2-oxo-pyrrolidin-1-yl)-propylamino]-pyrimidin-5-yl}-nicotinic acid] | 79
COc1cc(Nc2ncc(-c3ccc4c(c3)C(=O)NS4(=O)=O)c(-n3ccc(C(F)(F)F)n3)n2)cc(OC)c1 [Example 831, 5-{2-[(3,5-dimethoxyphenyl)amino]-4-[3-(trifluoromethyl)-1H-pyrazol-1-yl]pyrimidin-5-yl}-1,2-benzothiazol-3(2H)-one 1,1-dioxide] | 89
O=C(O)/C=C/c1cccc(-c2cnc(Nc3ccc(F)c(Cl)c3)nc2N2CCN(C(=O)C3CC3)CC2)c1 [Example 287, (E)-3-(3-(2-(3-chloro-4-fluorophenylamino)-4-(4-(cyclopropanecarbonyl)-piperazin-1-yl)pyrimidin-5-yl)phenyl)acrylic acid] | 97.2
COc1cc(Nc2ncc(-c3cc(C(=O)NS(C)(=O)=O)c(=O)n(C)c3)c(-n3nc(C(F)(F)F)cc3C)n2)cc(OC)c1 [Example 1026] | 98
COc1cc(Nc2ncc(-c3cnc(OC)nc3)c(N3CC(C)OC(C)C3)n2)cc(C(F)(F)F)c1 (stereo not drawn) [Example 349, 4-(2,6-dimethylmorpholino)-2′-methoxy-N-(3-methoxy-5-(trifluoromethyl)phenyl)-5,5′-bipyrimidin-2-amine] | 83.6

Compound | inhibition at 13 µM [%]
O=C(O)c1cncc(-c2cnc(Nc3ccc(F)c(S(=O)(=O)N4CCOCC4)c3)nc2N2CCOCC2)c1 [Example 444] | 7
CN(C)CCCNc1nc(Nc2ccc(F)c(Cl)c2)ncc1-c1ccc(C(=O)O)s1 [Example 17, 5-{2-(3-chloro-4-fluorophenylamino)-4-[3-(dimethylamino)propylamino]pyrimidin-5-yl}thiophene-2-carboxylic acid] | 54.8
COCC(COC)Nc1nc(Nc2ccc(F)c(Cl)c2)ncc1-c1cccc(/C=C/C(=O)O)c1 [Example 299] | 98.7
O=C(O)c1cn(CCN2CCOCC2)c2ccc(-c3cnc(Nc4ccc(F)c(Cl)c4)nc3-n3ccc(C(F)(F)F)n3)cc2c1=O [Example 1069, 6-(2-(3-Chloro-4-fluorophenylamino)-4-(3-(trifluoromethyl)-1H-pyrazol-1-yl)pyrimidin-5-yl)-1-(2-morpholinoethyl)-4-oxo-1,4-dihydroquinoline-3-carboxylic acid] | 100
O=C(O)c1cccc(-c2cnc(Nc3cc(F)cc(Cl)c3)nc2N2CCOCC2)n1 [Example 393, 6-[2-(3-Chloro-5-fluoro-phenylamino)-4-morpholin-4-yl-pyrimidin-5-yl]-pyridine-2-carboxylic acid] | 82
O=C(O)c1coc2ccc(-c3cnc(Nc4ccc(F)c(Cl)c4)nc3N3CCOCC3)cc2c1=O [Example 459, 6-(2-(3-chloro-4-fluorophenylamino)-4-morpholinopyrimidin-5-yl)-4-oxo-4H-chromene-3-carboxylic acid] | 100
O=C(O)/C=C/c1cccc(-c2cnc(Nc3ccc(F)c(Cl)c3)nc2-n2ccc(-c3ccsc3)n2)c1 [Example 565, (2E)-3-(3-{2-[(3-chloro-4-fluorophenyl)amino]-4-[3-(thiophen-3-yl)-1H-pyrazol-1-yl]pyrimidin-5-yl}phenyl)prop-2-enoic acid] | 100
CC(=O)N1CCN(c2nc(Nc3ccc(F)c(Cl)c3)ncc2-c2cccc(/C=C/C(=O)O)c2)CC1 [Example 288, (E)-3-(3-(4-(4-acetylpiperazin-1-yl)-2-(3-chloro-4-fluorophenylamino)-pyrimidin-5-yl)phenyl)acrylic acid] | 82.9
CCOC(=O)c1cncc(-c2cnc(Nc3ccc(F)c(Cl)c3)nc2NCCCN2CCOCC2)c1 [Example 106, 5-[2-(3-Chloro-4-fluoro-phenylamino)-4-(3-morpholin-4-yl-propylamino)-pyrimidin-5-yl]-nicotinic acid ethyl ester] | 40.8
O=S(=O)(c1cncc(-c2cnc(Nc3ccc(F)c(Cl)c3)nc2-n2ccc(C(F)(F)F)n2)c1)N1CCOCC1 [Example 1035] | 51
CC(=O)N1CCC(Nc2nc(Nc3ccc(F)c(Cl)c3)ncc2-c2cncnc2)CC1 [Example 35, 1-[4-[[2-[(3-chloro-4-fluorophenyl)amino]-5-pyrimidin-5-ylpyrimidin-4-yl]amino]piperidin-1-yl]ethanone] | 58.3
COC1CCN(c2nc(Nc3ccc(F)c(Cl)c3)ncc2-c2cncnc2)CC1 [Example 65, N-(3-chloro-4-fluorophenyl)-4-(4-methoxypiperidin-1-yl)-5-pyrimidin-5-ylpyrimidin-2-amine] | 75.9
COc1ncc(-c2cnc(Nc3ccc(F)c(Cl)c3)nc2NCC2CCN(C(=O)C3CC3)CC2)cn1 [Example 466, (4-((2-(3-chloro-4-fluorophenylamino)-2′-methoxy-5,5′-bipyrimidin-4-ylamino)methyl)piperidin-1-yl)(cyclopropyl)methanone] | 78
Fc1ccc(Nc2ncc(-c3cncnc3)c(-n3cnc(C(F)(F)F)c3)n2)cc1Cl [Example 84, N-(3-chloro-4-fluorophenyl)-4-[4-(trifluoromethyl)-1H-imidazol-1-yl]-5,5′-bipyrimidin-2-amine] | 79.6
COc1ncc(-c2cnc(Nc3ccc(F)c(Cl)c3)nc2-n2ccc(C(F)(F)F)n2)cc1C(=O)NS(C)(=O)=O [Example 1024, 5-(2-(3-Chloro-4-fluorophenylamino)-4-(3-(trifluoromethyl)-1H-pyrazol-1-yl)pyrimidin-5-yl)-2-methoxy-N-(methylsulfonyl)nicotinamide] | 100
Cc1cnc(CNc2nc(Nc3ccc(F)c(Cl)c3)ncc2-c2cncnc2)cn1 [Example 58, N^2-(3-chloro-4-fluorophenyl)-N^4-[(5-methylpyrazin-2-yl)methyl]-5-pyrimidin-5-ylpyrimidine-2,4-diamine] | 58
